Key:
Test in all cases: biochemical
Format in all cases: binding
[1] = biological target: T1, panel of 442 kinases (Homo sapiens, UniProt P42345); conditions: kinase MTOR; for remaining activity at 1 µM: read-out: % of control at 1 µM
T1 construct: purchased Ambit Biosciences (scanMAXX KINOMEscan)

[2] = biological target: T2, panel of 442 kinases (Homo sapiens, UniProt O94768); conditions: DRAK2; for remaining activity at 1 µM: read-out: % of control at 1 µM
T2 construct: purchased Ambit Biosciences (scanMAXX KINOMEscan)
T2 sequence (O94768 1-372): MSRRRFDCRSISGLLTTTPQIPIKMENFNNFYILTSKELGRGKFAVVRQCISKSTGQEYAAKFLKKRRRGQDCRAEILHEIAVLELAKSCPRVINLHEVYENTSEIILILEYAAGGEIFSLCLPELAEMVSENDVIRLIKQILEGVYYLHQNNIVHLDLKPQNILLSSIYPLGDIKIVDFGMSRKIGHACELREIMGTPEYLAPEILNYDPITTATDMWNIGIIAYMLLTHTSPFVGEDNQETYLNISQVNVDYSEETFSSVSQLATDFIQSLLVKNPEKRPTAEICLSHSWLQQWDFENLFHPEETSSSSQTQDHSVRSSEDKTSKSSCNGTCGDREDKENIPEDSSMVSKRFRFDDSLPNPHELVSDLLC

[3] = biological target: T3, panel of 442 kinases (Homo sapiens, UniProt Q04912); conditions: kinase MST1R; for remaining activity at 1 µM: read-out: % of control at 1 µM
T3 construct: purchased Ambit Biosciences (scanMAXX KINOMEscan)
T3 sequence (Q04912 25-1400): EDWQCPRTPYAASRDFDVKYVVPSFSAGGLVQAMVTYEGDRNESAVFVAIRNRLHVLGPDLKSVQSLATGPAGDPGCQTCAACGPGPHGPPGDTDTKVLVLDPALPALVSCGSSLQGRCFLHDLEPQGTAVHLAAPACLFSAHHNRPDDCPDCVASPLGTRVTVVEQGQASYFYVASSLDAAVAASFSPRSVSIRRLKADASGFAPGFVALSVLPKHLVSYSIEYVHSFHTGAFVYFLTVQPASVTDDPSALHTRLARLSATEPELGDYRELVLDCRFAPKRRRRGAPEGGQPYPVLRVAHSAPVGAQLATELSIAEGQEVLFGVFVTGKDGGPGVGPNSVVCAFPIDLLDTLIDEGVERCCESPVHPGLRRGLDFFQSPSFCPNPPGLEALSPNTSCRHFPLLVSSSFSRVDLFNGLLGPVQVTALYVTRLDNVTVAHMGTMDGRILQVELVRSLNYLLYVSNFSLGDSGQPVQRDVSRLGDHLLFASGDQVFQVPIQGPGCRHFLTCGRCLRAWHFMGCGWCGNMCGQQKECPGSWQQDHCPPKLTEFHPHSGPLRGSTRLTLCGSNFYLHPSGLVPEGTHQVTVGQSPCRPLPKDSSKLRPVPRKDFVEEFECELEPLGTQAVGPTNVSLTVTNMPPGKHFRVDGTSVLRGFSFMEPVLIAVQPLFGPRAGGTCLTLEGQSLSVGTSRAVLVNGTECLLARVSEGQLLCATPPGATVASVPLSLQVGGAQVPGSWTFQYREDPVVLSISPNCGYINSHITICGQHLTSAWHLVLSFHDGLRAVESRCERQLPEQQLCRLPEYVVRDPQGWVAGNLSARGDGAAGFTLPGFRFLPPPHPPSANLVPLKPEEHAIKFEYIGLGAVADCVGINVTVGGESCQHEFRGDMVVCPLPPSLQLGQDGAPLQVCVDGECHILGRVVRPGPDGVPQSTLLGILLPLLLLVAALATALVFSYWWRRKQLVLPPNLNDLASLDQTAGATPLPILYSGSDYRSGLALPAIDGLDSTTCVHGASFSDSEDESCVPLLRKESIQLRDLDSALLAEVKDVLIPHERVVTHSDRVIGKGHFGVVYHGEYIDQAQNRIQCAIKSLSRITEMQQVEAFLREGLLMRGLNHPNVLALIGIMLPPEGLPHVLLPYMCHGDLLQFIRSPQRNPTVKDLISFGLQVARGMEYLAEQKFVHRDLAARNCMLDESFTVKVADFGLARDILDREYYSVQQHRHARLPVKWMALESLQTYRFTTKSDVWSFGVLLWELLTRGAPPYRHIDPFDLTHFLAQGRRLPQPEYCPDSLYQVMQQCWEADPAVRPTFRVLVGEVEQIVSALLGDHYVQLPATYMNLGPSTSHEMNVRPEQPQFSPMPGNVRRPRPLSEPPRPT

[4] = biological target: T4, panel of 442 kinases (Homo sapiens, UniProt P10721, L576P); conditions: kinase KIT(L576P); for remaining activity at 1 µM: read-out: % of control at 1 µM
T4 construct: purchased Ambit Biosciences (scanMAXX KINOMEscan)

[5] = biological target: T5, panel of 442 kinases (Homo sapiens, UniProt O14733); conditions: kinase MKK7; for remaining activity at 1 µM: read-out: % of control at 1 µM
T5 construct: purchased Ambit Biosciences (scanMAXX KINOMEscan)
T5 sequence (O14733 1-419): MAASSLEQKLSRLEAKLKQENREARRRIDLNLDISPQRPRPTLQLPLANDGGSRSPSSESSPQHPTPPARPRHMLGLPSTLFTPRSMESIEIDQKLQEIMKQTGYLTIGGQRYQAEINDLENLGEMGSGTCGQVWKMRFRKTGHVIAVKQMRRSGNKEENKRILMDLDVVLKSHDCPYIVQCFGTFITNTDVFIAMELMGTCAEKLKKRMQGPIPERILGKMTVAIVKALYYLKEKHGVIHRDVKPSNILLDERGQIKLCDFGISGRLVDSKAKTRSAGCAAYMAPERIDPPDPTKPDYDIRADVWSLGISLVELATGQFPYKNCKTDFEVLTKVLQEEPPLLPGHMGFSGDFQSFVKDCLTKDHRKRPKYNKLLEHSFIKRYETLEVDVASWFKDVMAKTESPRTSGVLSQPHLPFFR

[6] = biological target: T6, panel of 442 kinases (Homo sapiens, UniProt P36507); conditions: kinase MEK2; for remaining activity at 1 µM: read-out: % of control at 1 µM
T6 construct: purchased Ambit Biosciences (scanMAXX KINOMEscan)
T6 sequence (P36507 whole entry): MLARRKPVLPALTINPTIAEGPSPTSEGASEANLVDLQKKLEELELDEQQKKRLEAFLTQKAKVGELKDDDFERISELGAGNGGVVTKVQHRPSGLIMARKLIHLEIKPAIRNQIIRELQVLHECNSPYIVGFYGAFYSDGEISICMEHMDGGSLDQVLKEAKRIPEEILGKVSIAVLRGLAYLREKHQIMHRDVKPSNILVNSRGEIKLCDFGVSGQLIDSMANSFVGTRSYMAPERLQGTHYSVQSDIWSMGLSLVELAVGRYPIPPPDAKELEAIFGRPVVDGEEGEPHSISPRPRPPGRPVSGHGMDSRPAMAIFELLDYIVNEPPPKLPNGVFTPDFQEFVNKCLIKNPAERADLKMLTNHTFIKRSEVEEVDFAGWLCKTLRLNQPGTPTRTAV

[7] = biological target: T7, panel of 442 kinases (Homo sapiens, UniProt P57078); conditions: kinase RIPK4; for remaining activity at 1 µM: read-out: RIPK4 (% of control at 1 µM)
T7 construct: purchased Ambit Biosciences (scanMAXX KINOMEscan)
T7 sequence (P57078 1-832): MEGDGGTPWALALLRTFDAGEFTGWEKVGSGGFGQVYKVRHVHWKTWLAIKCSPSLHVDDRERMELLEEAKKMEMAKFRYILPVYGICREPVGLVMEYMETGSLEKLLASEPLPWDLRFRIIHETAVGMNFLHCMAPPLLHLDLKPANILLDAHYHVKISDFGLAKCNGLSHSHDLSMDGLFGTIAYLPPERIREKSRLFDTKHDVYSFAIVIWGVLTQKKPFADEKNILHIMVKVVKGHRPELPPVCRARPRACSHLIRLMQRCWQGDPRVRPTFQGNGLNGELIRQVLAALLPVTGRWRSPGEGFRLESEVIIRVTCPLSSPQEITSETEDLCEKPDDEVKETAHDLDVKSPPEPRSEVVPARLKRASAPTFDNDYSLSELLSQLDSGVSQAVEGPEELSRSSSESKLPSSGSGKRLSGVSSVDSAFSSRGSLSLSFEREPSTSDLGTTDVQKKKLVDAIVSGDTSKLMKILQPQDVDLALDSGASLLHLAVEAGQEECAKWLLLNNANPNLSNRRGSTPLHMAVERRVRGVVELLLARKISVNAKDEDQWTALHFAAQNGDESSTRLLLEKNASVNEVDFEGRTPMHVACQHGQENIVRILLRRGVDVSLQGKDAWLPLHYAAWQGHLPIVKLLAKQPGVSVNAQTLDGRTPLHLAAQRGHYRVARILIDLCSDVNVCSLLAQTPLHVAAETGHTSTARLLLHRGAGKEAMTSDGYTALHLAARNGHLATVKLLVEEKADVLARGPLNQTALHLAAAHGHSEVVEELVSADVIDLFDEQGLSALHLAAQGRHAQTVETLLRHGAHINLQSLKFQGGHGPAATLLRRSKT

[8] = biological target: T8, panel of 442 kinases (Homo sapiens, UniProt P31749); conditions: AKT1; for remaining activity at 1 µM: read-out: % of control at 1 µM
T8 construct: purchased Ambit Biosciences (scanMAXX KINOMEscan)
T8 sequence (P31749 whole entry): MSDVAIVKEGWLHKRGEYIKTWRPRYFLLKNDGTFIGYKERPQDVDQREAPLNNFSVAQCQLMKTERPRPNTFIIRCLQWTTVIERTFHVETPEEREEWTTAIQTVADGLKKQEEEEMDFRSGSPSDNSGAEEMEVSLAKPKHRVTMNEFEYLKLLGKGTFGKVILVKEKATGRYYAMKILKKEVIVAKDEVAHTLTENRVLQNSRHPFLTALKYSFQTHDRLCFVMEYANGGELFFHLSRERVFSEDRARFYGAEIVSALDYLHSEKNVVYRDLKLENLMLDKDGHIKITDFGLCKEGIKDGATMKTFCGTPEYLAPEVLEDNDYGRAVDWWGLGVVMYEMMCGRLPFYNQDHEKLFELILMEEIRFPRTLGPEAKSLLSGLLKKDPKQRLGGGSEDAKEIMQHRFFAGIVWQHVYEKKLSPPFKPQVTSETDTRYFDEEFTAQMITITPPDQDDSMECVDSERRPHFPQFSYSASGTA

[9] = biological target: T9, panel of 442 kinases (Homo sapiens, UniProt P51812); conditions: kinase RSK2(Kin.Dom.1-N-terminal); for remaining activity at 1 µM: read-out: RSK2(Kin.Dom.1-N-terminal) (% of control at 1 µM)
T9 construct: purchased Ambit Biosciences (scanMAXX KINOMEscan)
T9 sequence (P51812 whole entry): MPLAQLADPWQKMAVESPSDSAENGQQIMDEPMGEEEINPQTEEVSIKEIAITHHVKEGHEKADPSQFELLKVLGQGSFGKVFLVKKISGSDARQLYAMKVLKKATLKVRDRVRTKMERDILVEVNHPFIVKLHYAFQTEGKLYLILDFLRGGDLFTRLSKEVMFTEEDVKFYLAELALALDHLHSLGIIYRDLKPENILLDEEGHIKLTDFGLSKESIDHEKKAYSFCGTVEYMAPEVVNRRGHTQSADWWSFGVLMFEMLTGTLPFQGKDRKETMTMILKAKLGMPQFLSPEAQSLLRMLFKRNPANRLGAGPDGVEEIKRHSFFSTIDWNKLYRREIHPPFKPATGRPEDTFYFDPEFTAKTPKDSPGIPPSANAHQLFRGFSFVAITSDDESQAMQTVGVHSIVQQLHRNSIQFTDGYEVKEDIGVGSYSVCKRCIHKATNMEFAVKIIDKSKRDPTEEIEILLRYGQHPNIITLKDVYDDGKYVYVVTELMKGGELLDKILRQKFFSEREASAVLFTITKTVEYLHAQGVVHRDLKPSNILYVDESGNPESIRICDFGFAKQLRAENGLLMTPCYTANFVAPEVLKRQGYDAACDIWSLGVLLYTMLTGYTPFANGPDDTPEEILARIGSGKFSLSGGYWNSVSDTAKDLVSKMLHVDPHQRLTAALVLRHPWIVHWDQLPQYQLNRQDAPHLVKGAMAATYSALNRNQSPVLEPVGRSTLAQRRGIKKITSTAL

[10] = biological target: T10, panel of 442 kinases (Homo sapiens, UniProt P04629); conditions: kinase TRKA; for remaining activity at 1 µM: read-out: TRKA (% of control at 1 µM)
T10 construct: purchased Ambit Biosciences (scanMAXX KINOMEscan)
T10 sequence (P04629 33-796): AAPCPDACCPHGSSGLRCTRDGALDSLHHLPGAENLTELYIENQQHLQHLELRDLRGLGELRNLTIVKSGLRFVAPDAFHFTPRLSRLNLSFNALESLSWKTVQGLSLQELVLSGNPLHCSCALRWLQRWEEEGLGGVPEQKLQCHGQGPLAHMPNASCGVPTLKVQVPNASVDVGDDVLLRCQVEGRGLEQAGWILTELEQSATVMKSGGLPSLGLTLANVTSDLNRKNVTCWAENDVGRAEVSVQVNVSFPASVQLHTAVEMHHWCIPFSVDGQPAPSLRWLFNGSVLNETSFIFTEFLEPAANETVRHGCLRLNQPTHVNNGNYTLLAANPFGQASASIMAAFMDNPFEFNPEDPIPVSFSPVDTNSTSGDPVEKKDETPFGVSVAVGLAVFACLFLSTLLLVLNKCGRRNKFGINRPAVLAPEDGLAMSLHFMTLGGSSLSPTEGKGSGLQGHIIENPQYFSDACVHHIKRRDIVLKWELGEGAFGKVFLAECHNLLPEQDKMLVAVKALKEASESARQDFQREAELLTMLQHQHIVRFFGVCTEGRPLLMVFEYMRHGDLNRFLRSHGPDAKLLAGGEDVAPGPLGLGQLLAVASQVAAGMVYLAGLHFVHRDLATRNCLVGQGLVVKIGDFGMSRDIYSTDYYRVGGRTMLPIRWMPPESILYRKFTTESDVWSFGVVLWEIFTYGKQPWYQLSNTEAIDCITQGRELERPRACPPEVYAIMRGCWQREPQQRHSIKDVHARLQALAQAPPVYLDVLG

[11] = biological target: T11, panel of 442 kinases (Homo sapiens, UniProt Q13557); conditions: CAMK2D; for remaining activity at 1 µM: read-out: % of control at 1 µM
T11 construct: purchased Ambit Biosciences (scanMAXX KINOMEscan)
T11 sequence (Q13557 whole entry): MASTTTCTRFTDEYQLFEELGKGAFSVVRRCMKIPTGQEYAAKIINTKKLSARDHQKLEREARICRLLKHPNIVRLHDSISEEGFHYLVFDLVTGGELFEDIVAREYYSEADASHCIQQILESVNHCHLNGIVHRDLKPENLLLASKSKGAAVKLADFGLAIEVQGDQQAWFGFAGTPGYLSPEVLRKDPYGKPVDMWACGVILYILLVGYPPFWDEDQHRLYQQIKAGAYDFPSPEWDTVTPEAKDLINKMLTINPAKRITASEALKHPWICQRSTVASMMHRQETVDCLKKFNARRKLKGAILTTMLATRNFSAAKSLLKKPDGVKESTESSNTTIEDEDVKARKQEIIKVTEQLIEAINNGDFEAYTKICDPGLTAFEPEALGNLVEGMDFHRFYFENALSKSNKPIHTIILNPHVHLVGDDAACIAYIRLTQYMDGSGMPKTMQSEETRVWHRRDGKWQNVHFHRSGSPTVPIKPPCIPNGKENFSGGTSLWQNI

[12] = biological target: T12, panel of 442 kinases (Homo sapiens, UniProt Q9H3Y6); conditions: kinase SRMS; for remaining activity at 1 µM: read-out: SRMS (% of control at 1 µM)
T12 construct: purchased Ambit Biosciences (scanMAXX KINOMEscan)
T12 sequence (Q9H3Y6 whole entry): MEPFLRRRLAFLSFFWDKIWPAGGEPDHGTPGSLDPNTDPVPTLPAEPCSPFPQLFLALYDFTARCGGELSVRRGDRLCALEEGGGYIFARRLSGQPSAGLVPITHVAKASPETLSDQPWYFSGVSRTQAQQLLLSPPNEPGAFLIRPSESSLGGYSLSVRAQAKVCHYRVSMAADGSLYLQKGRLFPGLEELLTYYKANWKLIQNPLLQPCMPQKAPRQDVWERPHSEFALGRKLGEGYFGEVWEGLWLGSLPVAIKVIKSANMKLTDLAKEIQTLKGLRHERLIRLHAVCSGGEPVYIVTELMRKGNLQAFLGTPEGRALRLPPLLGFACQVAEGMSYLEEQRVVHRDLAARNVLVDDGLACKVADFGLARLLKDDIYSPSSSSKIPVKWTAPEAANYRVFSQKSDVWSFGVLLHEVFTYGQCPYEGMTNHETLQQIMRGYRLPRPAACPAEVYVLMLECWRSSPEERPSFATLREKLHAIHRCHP

[13] = biological target: T13, panel of 442 kinases (Homo sapiens, UniProt Q00535); conditions: CDK5; for remaining activity at 1 µM: read-out: % of control at 1 µM
T13 construct: purchased Ambit Biosciences (scanMAXX KINOMEscan)
T13 sequence (Q00535 whole entry): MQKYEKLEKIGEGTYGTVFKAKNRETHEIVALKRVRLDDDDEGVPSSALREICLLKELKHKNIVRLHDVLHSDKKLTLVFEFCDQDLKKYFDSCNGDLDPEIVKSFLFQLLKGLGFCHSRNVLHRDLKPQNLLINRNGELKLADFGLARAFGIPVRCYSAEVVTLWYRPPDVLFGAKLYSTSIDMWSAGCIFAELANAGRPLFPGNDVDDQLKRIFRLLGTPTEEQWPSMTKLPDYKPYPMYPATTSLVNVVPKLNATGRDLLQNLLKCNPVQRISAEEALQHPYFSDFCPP

[14] = 10 µM, read-out: % of control at 10 µM

Structure (SMILES) | remaining activity at 1 µM [1] | remaining activity at 1 µM [2] | remaining activity at 1 µM [3] | remaining activity at 1 µM [4] | remaining activity at 1 µM [5] | remaining activity at 1 µM [6] | remaining activity at 1 µM [7] | remaining activity at 1 µM [8] | remaining activity at 1 µM [9] | remaining activity at 1 µM [10] | remaining activity at 1 µM [11] | remaining activity at 1 µM [12] | remaining activity at 1 µM [13] | further results
Nc1cc(C(F)(F)F)c(-c2cc(N3CCOCC3)nc(N3CCOCC3)n2)cn1 [Buparlisib] | 20% | 100% | 74% | 80% | 100% | 100% | 82% | 94% | 99% | 97% | 100% | 100% | 100% | remaining activity at 10 µM [1, 14]: 4.6%; remaining activity at 10 µM [2, 14]: 100%; remaining activity at 10 µM [3, 14]: 100%; remaining activity at 10 µM [4, 14]: 24%; remaining activity at 10 µM [5, 14]: 99%; remaining activity at 10 µM [6, 14]: 100%; remaining activity at 10 µM ([7]; 10 µM, read-out: RIPK4 (% of control at 10 µM)): 88%; remaining activity at 10 µM [8, 14]: 100%; remaining activity at 10 µM ([9]; 10 µM, read-out: RSK2(Kin.Dom.1-N-terminal) (% of control at 10 µM)): 87%; remaining activity at 10 µM ([10]; 10 µM, read-out: TRKA (% of control at 10 µM)): 80%; remaining activity at 10 µM [11, 14]: 100%; remaining activity at 10 µM ([12]; 10 µM, read-out: SRMS (% of control at 10 µM)): 100%; remaining activity at 10 µM [13, 14]: 99%
Cn1c(=O)n(-c2ccc(C(C)(C)C#N)cc2)c2c3cc(-c4cnc5ccccc5c4)ccc3ncc21 [Dactolisib, 2-methyl-2-[4-(3-methyl-2-oxo-8-quinolin-3-yl-2,3-dihydroimidazo[4,5-c]quinolin-1-yl)-phenyl] propionitrile] | 0% | 68% | 60% | 59% | 100% | 73% | 57% | 100% | – | – | 79% | 88% | 100% | –
COc1ncc(-c2ccc3nccc(-c4ccnnc4)c3c2)cc1NS(=O)(=O)c1ccc(F)cc1F [Omipalisib] | 0% | 100% | 95% | 90% | 100% | 99% | 70% | 59% | 62% | 80% | 100% | 90% | 100% | –
FC(F)c1nc2ccccc2n1-c1nc(N2CCOCC2)nc(N2CCOCC2)n1 [ZSTK474, 2-(difluoromethyl)-1-[4,6-di(4-morpholinyl)-1,3,5-triazin-2-yl]-1H-benzimidazole] | 0.75% | 86% | 92% | 100% | 100% | 97% | 77% | 100% | 88% | 100% | 88% | 80% | 100% | –

Source: PMC5564600 (Oncotarget, 2017)
